Results published in patent publication US4629733A, “Indolinones and pharmaceutical compositions containing same” (Dr. Karl Thomae GmbH, priority 1980, dated 1986).

Legend:
[1] = tested on: mice; assay: Acute toxicity; format: in vivo; settings: observation time 14 days
Method: The acute toxicity of the substances to be tested was determined in groups of 5 mice each each after peroral administration of a dose of 250 mg/kg or 1000 mg/kg (observation time: 14 days).

[2] = target: phosphodiesterase (PDE); assay: PDE inhibition; format: biochemical; settings: 10,000×g supernatant of human blood platelets, 1 μmol/liter 3H-cAMP, pH 7.4, 15 minutes at 37° C.
Method: cAMP is hydrolysed to AMP by phosphodiesterase (PDE) from various sources, including blood platelets. This hydrolysis is inhibited by PDE inhibitors according to the concentration.
The phosphodiesterase used is the 10,000×g supernatant of human blood platelets which have been frozen with water and thawed out again. An amount of 0.3 ml of a mixture which contains 0.1 mol/liter of tri-hydroxy-aminomethane (pH 7.4), 3 mmol/liter of magnesium chloride, 1 mmol/liter of AMP, 1 μmol/liter of ^3 H-cAMP (specific activity about 10 MBq/μmol), PDE as well as the substance to be tested, and water for the control is incubated for 15 minutes at 37° C. The incubation is stopped by the addition of 0.5 ml of zinc sulphate (0.266 mol/liter) and 0.5 ml of barium hydroxide (0.226 mol/liter), the precipitate is centrifuged, and the activity remaining in the supernatant of the unreacted ^3 H-cAMP is determined. From a comparison of the substance preparations and the control preparations, the concentration for a 50% inhibiting activity (IC50) of the respective substance was calculated.

[3] = tested on: conscious mice; assay: Determination of the prolongation of bleeding time; format: in vivo; settings: Mus musculus, po, 1 h, 10 mg/kg orally, after one hour, versus control group
Method: To measure the bleeding time, 10 mg/kg of the test compound is administered orally to conscious mice. After one hour 0.5 mm of the tip of the tail of the mouse is cut off, and the droplets of blood are gently removed with filter paper every 30 seconds. The number of drops of blood give a measure of the bleeding time (5 animals/experiment). The values in the following table represent the prolongation as a percentage as compared to a control group: […]

Compound	Acute toxicity per os (animals died) ([1]; 250 mg/kg peroral)	IC50 [2]	change in vivo at 10 mg/kg [3]	Acute toxicity per os (animals died) ([1]; 1000 mg/kg peroral)
CC1(C)C(=O)Nc2ccc(OCCCC[S+]([O-])c3ccccc3)cc21 (stereo not drawn) [A, 3,3-Dimethyl-5-(4-phenylsulfinyl-butoxy)-indolinone-2]	0 out of 5	2.5 µM	–	–
CC1(C)C(=O)Nc2ccc(OCCCC[S+]([O-])c3ccc(Cl)c(Cl)c3)cc21 (stereo not drawn) [B, 3,3-Dimethyl-5-[4-(3,4-dichlorophenylsulfinyl)-butoxy]-indolinone-2]	–	0.3 µM	59%	0 out of 6
CC1(C)C(=O)Nc2ccc(OCCCCSc3ccc(C4CCCCC4)cc3)cc21 [C, 3,3-Dimethyl-5-[4-(4-cyclohexylphenylmercapto)-butoxy]-indolinone-2]	–	2.5 µM	–	0 out of 6
CC1(C)C(=O)Nc2ccc(OCCCC[S+]([O-])c3ccc(-c4ccccc4F)cc3)cc21 (stereo not drawn) [D, 3,3-Dimethyl-5-[4-(2'-fluoro-4-biphenylylsulfinyl)-butoxy]-indolinone-2]	–	0.027 µM	> 249%	0 out of 6
COc1ccc([S+]([O-])CCCCOc2ccc3c(c2)C(C)(C)C(=O)N3)cc1OC (stereo not drawn) [E, 3,3-Dimethyl-5-[4-(3,4-dimethoxyphenylsulfinyl)-butoxy]-indolinone-2]	–	0.54 µM	> 198%	0 out of 6
COc1cc2ccc(S(=O)(=O)CCCCOc3ccc4c(c3)C(C)(C)C(=O)N4)cc2cc1OC [F, 3,3-Dimethyl-5-[4-(6,7-dimethoxy-naphthyl-(2)-sulfonyl)butoxy]-indolinone-2]	–	0.24 µM	> 232%	0 out of 6
CC(C)(C)c1cc([S+]([O-])CCCCOc2ccc3c(c2)C(C)(C)C(=O)N3)cc(C(C)(C)C)c1O (stereo not drawn) [G, 3,3-Dimethyl-5-[4-(3,5-di-tert.butyl-4-hydroxy-phenylsulfinyl)-butoxy]-indolinone-2]	–	0.07 µM	154%	0 out of 6
CC(C)(C)c1cc(S(=O)(=O)CCCCOc2ccc3c(c2)C(C)(C)C(=O)N3)cc(C(C)(C)C)c1O [H, 3,3-Dimethyl-5-[4-(3,5-di-tert.butyl-4-hydroxy-phenylsulfonyl)-butoxy]-indolinone-2]	–	0.059 µM	149%	0 out of 6
COc1ccc([S+]([O-])CCCCOc2ccc3c(c2)C(C)(C)C(=O)N3)cc1 (stereo not drawn) [I, 3,3-Dimethyl-5-[4-(4-methoxyphenyl-sulfinyl)-butoxy]-indolinone-2]	–	0.5 µM	> 214%	0 out of 6
CC(C)(C)c1ccc([S+]([O-])CCCCOc2ccc3c(c2)C(C)(C)C(=O)N3)cc1 (stereo not drawn) [K, 3,3-Dimethyl-5-[4-(4-tert.butyl-phenyl-sulfinyl)-butoxy]-indolinone-2]	–	0.27 µM	> 285%	0 out of 6
COc1cc2ccc([S+]([O-])CCCCOc3ccc4c(c3)C(C)(C)C(=O)N4)cc2cc1OC (stereo not drawn) [L, 3,3-Dimethyl-5-[4-(6,7-dimethoxy-naphthyl-(2)-sulfinyl)butoxy]-indolinone-2]	–	0.24 µM	102%	0 out of 6
CC1(C)C(=O)Nc2ccc(OCCCCSc3cc(Cl)c(O)c(Cl)c3)cc21 [M, 3,3-Dimethyl-5-[4-(3,5-dichloro-4-hydroxy-phenyl-mercapto)-butoxy]-indolinone-2]	–	–	140%	0 out of 6
CC1(C)C(=O)Nc2ccc(OCCCC[S+]([O-])c3cc(Br)c(N)c(Br)c3)cc21 (stereo not drawn) [N, 3,3-Dimethyl-5-[4-(3,5-dibromo-4-amino-phenyl-sulfinyl)butoxy]-indolinone-2]	–	0.11 µM	> 254%	0 out of 6
CC1(C)C(=O)Nc2ccc(OCCCC[S+]([O-])c3ccc4ccccc4c3)cc21 (stereo not drawn) [O, 3,3-Dimethyl-5-[4-(naphthyl-(2)-sulfinyl)-butoxy]-indolinone-2]	–	0.11 µM	127%	0 out of 6
CC1(C)C(=O)Nc2ccc(OCCCC[S+]([O-])c3ccc(Cl)cc3)cc21 (stereo not drawn) [P, 3,3-Dimethyl-5-[4-(4-chlorophenylsulfinyl)-butoxy]-indolinone-2]	–	0.36 µM	114%	0 out of 6
CC1(C)C(=O)Nc2ccc(OCCCCC[S+]([O-])c3ccc(C4CCCCC4)cc3)cc21 (stereo not drawn) [Q, 3,3-Dimethyl-5-[5-(4-cyclohexyl-phenyl-sulfinyl)-pentoxy]-indolinone-2]	–	0.38 µM	> 174%	0 out of 6
CC(C)(C)c1ccc(S(=O)(=O)CCCCOc2ccc3c(c2)C(C)(C)C(=O)N3)cc1 [R, 3,3-Dimethyl-5-[4-(4-tert.butyl-phenyl-sulfonyl)-butoxy]-indolinone-2]	–	0.24 µM	> 242%	0 out of 6
CC1(C)C(=O)Nc2ccc(OCCCC[S+]([O-])c3ccc(C4CCCCC4)cc3)cc21 (stereo not drawn) [S, 3,3-Dimethyl-5-[4-(4-cyclohexyl-phenyl-sulfinyl)-butoxy]-indolinone-2]	–	0.058 µM	104%	0 out of 6
